Drawing on PubChem BioAssay AID2305 (GlaxoSmithKline (GSK), 2010), this text covers IC50 for 87 compounds.

This test concerns P. falciparum 3D7 growth, pLDH absorbance. As to the kind of experiment: P. falciparum 3D7 growth inhibition, dose response, strain 3D7 (AID 2305).

SMILES strings stand for the structures. Several values for one entry are separate records, joined by “and”; a condition that tells them apart may be missing. Equal entries are not always repeated.

With `COc1cc(Cl)c(C)cc1N(Cc1ccccc1-c1ccccc1)S(=O)(=O)c1ccc(C(F)(F)F)cc1`, the concentration for half-maximal inhibition (IC50) worked out at 1.05 µM. In turn, `FC(F)(F)c1cccc(Nc2nc(-c3ccccc3)nc3ncccc23)c1` came in with a 50% inhibitory concentration (IC50) of 0.8 µM. This IC50 and that of the compound before are within 1.5-fold of each other. As to `c1cc(CNC2CCCC2)cc(-c2ccc(CNc3ccc4ncccc4c3)cc2)c1`, the IC50 turned out to be 0.77 µM. Then `OC(CN(Cc1ccccc1)Cc1ccccc1)Cn1c2ccc(Cl)cc2c2cc(Cl)ccc21` (configuration not stated), with 0.99 µM. Then `CC(C)C[C@@H](/C=N/NC(N)=O)NC(=O)[C@H](CC(C)C)NC(=O)[C@H](CC(C)C)NC(=O)OCc1ccccc1`, with 0.15 µM; and `O=C(/C=C/c1ccc(Cl)c(Cl)c1)NCCCCCN1CCCN(C(=O)Nc2ccc([N+](=O)[O-])cc2)CC1`, with 0.62 µM; and `CN1CCN(c2ccnc3ccc(NC(=O)Nc4ccc5c(c4)CCC5=O)cc23)CC1`, with 0.33 µM.

Turning to `COc1ccc(CN2CCC(CNCCc3ccccc3Cl)CC2)cc1`, the IC50 turned out to be 1.11 µM.

As for `CN(C)CCN(C)Cc1ccc(-c2ccc3c(Nc4ccc(Cl)cc4F)ccnc3c2)o1`, the IC50 was 0.36 µM. `CC(C)CCN1CCCN(Cc2ccc(C(=O)Nc3ccc(Cl)cc3)cc2)CC1` gave a 50% inhibitory concentration (IC50) of 0.8 µM. Then `COc1cc(NC(=O)/C=C/c2ccc(-c3ccccc3)cc2)ccc1OCCN(C(C)C)C(C)C`, with 0.84 µM; and `CCSc1nc2sc3c(c2c(=O)n1-c1ccccc1)CCN(C)C3`, with 0.46 µM.

In the case of `COc1ccc(C2C(C(=O)Nc3cc(OC)c(OC)c(OC)c3)c3cc(OC)c(OC)cc3C(=O)N2C)cc1` (configuration not stated), the concentration for half-maximal inhibition (IC50) came to 0.8 µM.

Compound `CCCN(CCC)CCCN(CCCN(CCC)CCC)c1cc(C)nc(Nc2ccc(Cl)cc2)n1` gave an IC50 of 0.17 µM. Then `Cn1cncc1CNCc1ccc(-c2cccc(-c3nc4ccccc4[nH]3)c2)cc1`, with 0.23 µM; and `CN1CCC(N2CCC(Oc3cccc(C(=O)NCCCC4CCCC4)c3)CC2)CC1`, with 0.84 µM.

Regarding `CCCCOc1ccccc1C(=O)NCc1csc(-c2ccccc2)n1`, the IC50 was 0.56 µM. In the case of `Cc1cc(CN2CC[C@H](NC(=O)c3ccc(Cl)c(Cl)c3)C2)ccc1OC1CCN(C)C1` (some centres not stated), the 50% inhibitory concentration (IC50) is 0.95 µM. Consider `OCC(c1ccccc1)n1c(COc2ccc(Cl)cc2)nc2c(OCCCN3CCCCC3)cccc21` (configuration not stated), for which the IC50 stood at 0.92 µM. `CNCc1ccc(-c2ccc3ccnc(N)c3c2)cc1` returned a 50% inhibitory concentration (IC50) of 0.26 µM. This IC50 lies about 3.5-fold lower than the previous one. In the case of `O=C(NCCCCN1CCCC2c3ccc(O)cc3CCC21)c1ccc(-c2ccccc2)cc1` (configuration not stated), the half-inhibitory concentration (IC50) was 0.73 µM and 0.94 µM. `CC(=O)Nc1ccc2[nH]cc(C3CCN(CCC4CCN(C(=O)/C=C/c5ccc(Cl)c(Cl)c5)CC4)CC3)c2c1` came in with a half-inhibitory concentration (IC50) of 0.78 µM. Then `Cc1cccc2[nH]c(-c3ccc(-c4ccc(NC(=O)C(C)CN(C)C)cc4)s3)nc12` (configuration not stated), with 0.41 µM; and `CN(C)CCN(C)Cc1ccc(-c2ccc(NC(=O)c3ccc(Cl)cc3)cc2)cc1`, with 0.94 µM. With `COc1cccc(-c2ccc(C(=O)NC3CCN(Cc4ccc(C(C)(C)C)cc4)CC3)s2)c1` the figure was 1.6 µM.

`O=C(/C=C/c1ccc(Cl)c(Cl)c1)N1CCC(CN2CCC(c3c(-c4ccc(F)cc4)[nH]c4ccccc34)CC2)CC1` came in with a concentration for half-maximal inhibition (IC50) of 0.17 µM. This IC50 lies about 9.4-fold lower than the previous one. With `COc1ccc(Cl)cc1NC(=O)CN(C)C(=O)c1cnn(-c2ccccc2)n1` the figure was 0.23 µM. `COc1ccccc1-c1cccc(-c2cccc(NC(=O)c3ccc([N+](=O)[O-])o3)c2)n1` came in with an IC50 of 0.6 µM. On to `Cn1c(Cc2ccccc2)nnc1Sc1ccc(C#N)c([N+](=O)[O-])c1`, for which the half-inhibitory concentration (IC50) amounted to 0.91 µM. With `COc1ccc(S(=O)(=O)NC2CCN(CCCOc3ccnc4cc(Cl)ccc34)C2)cc1OC` (configuration not stated) the figure was 1.05 µM; with `Cc1cccc(C)c1CNc1cccc(-c2nc(C)c(C)[nH]2)c1`, 0.88 µM. The compound `COc1ccc(CN2CCCN(Cc3cccc(NC(=O)c4ccc5ccccc5c4)c3)CC2)cc1` yielded a concentration for half-maximal inhibition (IC50) of 1 µM.

As for `O=C(Nc1ccc(F)c(C(F)(F)F)c1)N[C@H]1CCN(CCCCCNC(=O)[C@@H]2C[C@H]2c2ccc(Cl)c(Cl)c2)C1`, the 50% inhibitory concentration (IC50) amounted to 0.16 µM. Compared with the last compound, the IC50 is about 6.2-fold lower. `COc1ccc2c(=O)c(I)c(C)[nH]c2c1` yielded an IC50 of 0.44 µM. This IC50 is about 2.8-fold higher than that of the compound before. With `Oc1ccc(CCCc2cc(Oc3c(I)cc(CCc4ncc[nH]4)cc3I)ccc2O)cc1` the figure was 0.87 µM; with `CC(C)N1CCN(CCCCNc2c3ccccc3nc3ccccc23)CC1`, 0.54 µM; with `CCN(CC)CCN(Cc1ccc(-c2ccc(C(F)(F)F)cc2)cc1)C(=O)Cn1c(SCc2ccc(F)cc2)nc(=O)c2sccc21`, 0.99 µM. Then `CC(C)CNCc1ccc(-c2cccc(CN(CCN(C)C)C(=O)CCC3CCCC3)c2)cc1`, with 0.81 µM; and `O=C(/C=C/c1ccc(Cl)c(Cl)c1)NC1CCC(CN2CCC(c3nc4ncccc4[nH]3)CC2)CC1` (configuration not stated), with 1.23 µM; and `Cn1cnc(CCNC(=O)c2ccc(-c3ccc(-c4nc5ccc(C(F)(F)F)cc5[nH]4)s3)cc2)c1`, with 0.4 µM. For the compound `Cc1ccc(NC(=O)c2ccc(CN3CCCN(CC4CCCCC4)CC3)cc2)cc1`, the IC50 was determined as 0.8 µM.

Take `CC(C)CCC[C@@H]([C@@H](CC1CCCCC1)C(=O)N[C@@H](CCCCNC(=O)OCc1ccccc1)C(=O)Nc1nccs1)N(O)C=O`: the 50% inhibitory concentration (IC50) came to 0.46 µM. This IC50 lies about 1.7-fold lower than the previous one. Then `O=C(Nc1ccc(F)c(F)c1)c1ccc(CN2CCCN(Cc3cccc(O)c3)CC2)cc1`, with 0.84 µM; and `Cc1ccc(C(=O)Nc2cc(S(=O)(=O)N3CCCC3)ccc2OCC(F)(F)F)cc1`, with 0.85 µM. With `Cc1ccc(NC(=O)c2ccc3ncccc3c2)cc1OC1CCN(Cc2ccsc2)CC1` the figure was 0.93 µM; with `Cc1c(C)c2c(c(C)c1O)CC[C@@](C)(C(=O)NC1CCC(CN3CCC(c4c[nH]c5ccccc45)CC3)CC1)O2` (some centres not stated), 0.96 µM. Compound `CN1[C@@H]2CC[C@H]1c1cc(NC(=O)c3cc(-c4ccc(Cl)cc4)cs3)ccc12` yielded an IC50 of 1.3 µM. `CN(C)CCNCc1ccc(-c2ccc3c(Nc4ccc(Cl)cc4F)ccnc3c2)o1` had an IC50 of 0.21 µM. Compound `CC(C)NCc1ccc(-c2cccc(-c3nc4ccccc4[nH]3)c2)cc1` yielded an IC50 of 0.23 µM. The compound `CC(Oc1c(C2CCN(CCCCNC(=O)c3ccc(-c4ccc(C#N)cc4)cc3)CC2)ccc2c1CCCC2)C(N)=O` (configuration not stated) came in with a concentration for half-maximal inhibition (IC50) of 0.68 µM. Consider `Cc1[nH]c(C)c(-c2ccc(-c3ccc(OC(F)(F)F)cc3)cc2)c(=O)c1Br`, for which the IC50 came out at 0.04 µM. As for `O=C(O)CCSc1ncnc2nc[nH]c12`, the IC50 was determined as 0.13 µM.

The compound `Oc1ccc(CN2CCN(CCOC(c3ccccc3)c3ccccc3)CC2)cc1Cl` returned an IC50 of 0.81 µM. This IC50 lies about 6.2-fold higher than the previous one. With `CCN(CC)C(=NCCCCCCN=C(NC(N)=NCc1ccc(Cl)cc1Cl)N(CC)CC)NC(N)=NCc1ccc(Cl)cc1Cl` the figure was 0.22 µM; with `CCOc1ccc(-c2nonc2NC(=O)c2ccccc2OC)cc1OCC`, 0.24 µM. For the compound `O=C(Nc1ccc(-c2ccccc2)cc1)Nc1cccc(Cn2ncc(N3CCNCC3)c(Cl)c2=O)c1`, the IC50 was found to be 0.46 µM.

The compound `O=C(C=Cc1ccc(Cl)c(Cl)c1)NC1CCN(CCc2ccccc2)CC1` yielded an IC50 of 0.59 µM. This IC50 and that of the compound before are within 1.5-fold of each other. Turning to `C=CCC(C(=O)Nc1ccnc2ccc(OC)cc12)C1CCN(CCCCCCC)CC1` (configuration not stated), the concentration for half-maximal inhibition (IC50) is 0.24 µM. As to `CC(=NN=C(N)N)c1ccc2ccc3ccccc3c2c1`, the half-inhibitory concentration (IC50) is 0.89 µM. With `O=C(Nc1cccc(CN2CCN(C(=O)c3cccc(Cl)c3)CC2)c1)c1ccco1` the figure was 0.44 µM; with `CC1CCC(NC(=O)c2nn(-c3ccc(Cl)cc3)c(=O)c3ccccc23)CC1` (configuration not stated), 1.08 µM; with `Cc1c(Cl)ccc2c(C(=O)Nc3ccncc3)cc(-c3cccnc3)nc12`, 0.78 µM. With `Cc1nc2nc(N)nc(N)c2c(C)c1Cc1cccc(C#N)c1` the figure was 0.92 µM.

Turning to `C/C=C1\CN2CC[C@H]1C[C@H]2[C@H](O)c1ccnc2ccc(O)cc12`, the concentration for half-maximal inhibition (IC50) amounted to 0.6 µM. With `CN(C)c1cccc2c(S(=O)(=O)Nc3cccc(CCN4CCC(N5CCCCC5)CC4)c3)cccc12` the figure was 0.98 µM; with `CCN(CCCN1CCCCC1)c1cc(C)nc(Nc2cc(C)ccc2C)n1`, 0.66 µM; with `Oc1cc(Nc2ccnc3cc(-c4ccc(CN5CCCCC5)o4)ccc23)c(Cl)cc1F`, 0.12 µM. Then `COc1cc2c(cc1OC)C(C(=O)Nc1ccc(C(F)(F)F)cc1)C(c1cccs1)N(C)C2=O` (configuration not stated), with 0.16 µM; and `Cc1cccc2[nH]c(-c3ccc(-c4cccc(NC(=O)Nc5ccsc5)c4)cc3)nc12`, with 0.8 µM; and `O=C(Nc1ccc(Cl)c(Cl)c1)Nc1cc(C(F)(F)F)ccc1Cl`, with 1.44 µM. `Cc1[nH]c(C)c(-c2ccc(CCc3ccc(N)cc3)cc2)c(=O)c1Cl` gave an IC50 of 0.1 µM.

Take `C[C@H](Cc1ccc(OCCCCOc2ccc(C[C@@H](C)NC[C@H](O)c3cccc(Cl)c3)cc2)cc1)NC[C@H](O)c1cccc(Cl)c1`: the IC50 came out at 0.76 µM. Against the preceding compound, the IC50 is about 7.6-fold higher. As to `O=C(/C=C/c1ccc(-c2nc3cc(F)c(F)cc3[nH]2)cc1)NCc1ccc(Cl)c(Cl)c1`, the IC50 stood at 0.94 µM. Turning to `CCCCc1cc(O)c2c(c1)OC(C)(C)C=C2C1=CCN(Cc2ccccc2)CC1`, the IC50 is 0.25 µM. This IC50 lies about 3.8-fold lower than the previous one. Then `O=C(Nc1ccc(-c2ccccc2)cc1)Nc1ccc2c(c1)CCNCC2`, with 0.35 µM; and `Fc1cccc(COc2ccc(Nc3ncnc4sc(C#C[C@H]5CC[C@H](CNCC(F)(F)F)N5)cc34)cc2Cl)c1`, with 1.42 µM. Then `COc1ccc(Nc2ccnc3cc(Cl)ccc23)cc1OC`, with 1.12 µM. Then `COCCNCc1ccc(-c2ccc(CN(C(=O)Nc3ccccc3)C3CCN(Cc4ccccc4)CC3)cc2)cc1`, with 0.75 µM; and `CCN(c1ccc(F)cc1)S(=O)(=O)c1cc(Br)cc2c1N(C(=O)C1CC1)CC2`, with 0.94 µM; and `Cc1cccc2[nH]c(-c3ccc(-c4ccc(CNCCNC(=O)c5ccnn5C)cc4)s3)nc12`, with 0.31 µM. With `Cc1cc(N2CCCCC2)nc2ccc(NC(=O)c3cccc([N+](=O)[O-])c3)cc12`, the 50% inhibitory concentration (IC50) was found to be 0.38 µM. The IC50 values of the last two compounds are within 1.5-fold of each other. With `CC(C)(C)c1ccc(NC(=O)c2ccc(CN3CCCN(Cc4ccsc4)CC3)cc2)cc1` the figure was 0.72 µM; with `COc1ccc(-c2ccc(NC(=O)c3cccs3)cc2)cc1CN1CCCN(C)CC1`, 0.96 µM; with `O=C(Nc1cccc(Cl)c1)N(CCCn1ccnc1)Cc1csc(-c2ccc(CNCc3ccccc3)cc2)n1`, 0.54 µM. Then `NC1=NC(CCc2ccccc2)N(c2ccc(Cl)cc2)C(N)=N1` (configuration not stated), with 0.04 µM; and `OC1CCC(Nc2ccc3ncc(-c4ccc5ccccc5c4)n3n2)CC1` (configuration not stated), with 0.98 µM; and `CC(=O)Nc1ccc2[nH]cc(C3CCN(CC4CCC(NC(=O)/C=C/c5ccc(Cl)c(Cl)c5)CC4)CC3)c2n1` (configuration not stated), with 0.26 µM.
